Target: T1, KCNQ 2/3 channels (HEK293 cells stably expressing human KCNQ2 and KCNQ3 subunits) (Homo sapiens, UniProt O43525+O43526)
T1 construct: expressed in transfected cells; host or cells: HEK293
Assay: KCNQ2/3 channel activation, thallium flux FLIPR assay (BTC-AM dye)
Type: cell-based
Settings: for Emax: HEK293, maximum response relative to response of retigabine at 10 μM (set at 100%), read-out: Max. %; for EC50: HEK293 cells expressing human KCNQ2 and KCNQ3, FLIPR thallium flux
Summary of the method: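 HEK293 cells stably expressing human KCNQ2/KCNQ3 were loaded with BTC-AM and exposed to compound for 4 min in pH 7.3 gluconate buffer with ouabain. Thallium flux was triggered with 6 mM TlNO3 and 10 mM K2SO4 (stock additions) and fluorescence (ex 488, em 540 nm) recorded for 3 min. EC50 came from responses over baseline; maximal response is relative to 10 μM retigabine (100%).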

Emax	EC50	SMILES
198%	< 100 nM	Cc1cnc2c(-c3ccc(F)c(C)c3)c(NC(=O)CC3CC4CCC3C4)nn2c1 (racemic) [Example 150, (±)-exo-2-bicyclo[2.2.1]hept-2-yl-N-[3-(4-fluoro-3-methylphenyl)-6-methylpyrazolo[1,5-a]pyrimidin-2-yl]acetamide]
150%	< 100 nM	CC(C)(C)c1c(NC(=O)CC2CC3CCC2C3)nn2cccnc12 (racemic) [Example 121, (±)-exo-2-bicyclo[2.2.1]hept-2-yl-N-(3-tert-butylpyrazolo[1,5-a]pyrimidin-2-yl)acetamide]
125%	100 to 500 nM	Cc1cc(C)n2nc(NC(=O)CCc3ccccc3)c(-c3ccc(Cl)c(C)c3)c2n1 [Example 47, N-[3-(4-chloro-3-methylphenyl)-5,7-dimethylpyrazolo[1,5-a]pyrimidin-2-yl]-3-phenylpropanamide]
130%	100 to 500 nM	O=C(CC1CC2CCC1C2)Nc1nn2cccnc2c1-c1ccc(OC(F)(F)F)cc1 (racemic) [Example 124, (±)-exo-2-bicyclo[2.2.1]hept-2-yl-N-{3-[4-(trifluoromethoxy)phenyl]pyrazolo[1,5-a]pyrimidin-2-yl}acetamide]
132%	100 to 500 nM	Cc1cnc2c(-c3cccc(F)c3)c(NC(=O)Cc3ccc(F)cc3)nn2c1 [Example 84, 2-(4-fluorophenyl)-N-[3-(3-fluorophenyl)-6-methylpyrazolo[1,5-a]pyrimidin-2-yl]acetamide]
154%	500 to 1000 nM	CC(C)c1ccc(CC(=O)Nc2nn3cccnc3c2C(C)(C)C)cc1 [Example 166, N-(3-tert-butylpyrazolo[1,5-a]pyrimidin-2-yl)-2-(4-isopropylphenyl)acetamide]
157%	< 100 nM	Cc1cc(C)n2nc(NC(=O)CCC3CCCC3)c(-c3ccc(Cl)cc3)c2n1 [Example 43, N-[3-(4-chlorophenyl)-5,7-dimethylpyrazolo[1,5-a]pyrimidin-2-yl]-3-cyclopentylpropanamide]
107%	100 to 500 nM	CC(C)(C)/C=C/c1c(NC(=O)Cc2ccc(F)cc2)nn2cccnc12 [Example 161, N-{3-[(1E)-3,3-dimethylbut-1-en-1-yl]pyrazolo[1,5-a]pyrimidin-2-yl}-2-(4-fluorophenyl)acetamide]
133%	100 to 500 nM	CC(C)(C)c1c(NC(=O)CC(C)(C)c2ccccc2)nn2cccnc12 [Example 126, N-(3-tert-butylpyrazolo[1,5-a]pyrimidin-2-yl)-3-methyl-3-phenylbutanamide]
178%	100 to 500 nM	CC(C)(C)c1c(NC(=O)CCc2ccc(C(F)(F)F)cc2)nn2cccnc12 [Example 165, N-(3-tert-butylpyrazolo[1,5-a]pyrimidin-2-yl)-3-[4-(trifluoromethyl)phenyl]propanamide]
141%	100 to 500 nM	Cc1cnc2c(-c3cccc(OC(F)(F)F)c3)c(NC(=O)CC(C)(C)C)nn2c1 [Example 3, 3,3-dimethyl-N-{6-methyl-3-[3-(trifluoromethoxy)phenyl]pyrazolo[1,5-a]pyrimidin-2-yl}butanamide]
98%	500 to 1000 nM	O=C(CC12CC3CC(CC(C3)C1)C2)Nc1nn2cccnc2c1-c1ccc2ccccc2c1 [Example 116, 2-(adamantan-1-yl)-N-[3-(2-naphthyl)pyrazolo[1,5-a]pyrimidin-2-yl]acetamide]
166%	100 to 500 nM	Cc1cc(C)n2nc(NC(=O)CCc3ccccc3)c(-c3ccc(F)cc3)c2n1 [Example 29, N-[3-(4-fluorophenyl)-5,7-dimethylpyrazolo[1,5-a]pyrimidin-2-yl]-3-phenylpropanamide]
73%	1000 to 10000 nM	Cc1cnc2c(-c3cccc(Cl)c3)c(NC(=O)CC(C)(C)C)nn2c1 [Example 51, N-[3-(3-chlorophenyl)-6-methylpyrazolo[1,5-a]pyrimidin-2-yl]-3,3-dimethylbutanamide]
6%	> 10000 nM	Cc1ccccc1-c1c(NC(=O)CC(C)(C)C)nn2cccnc12 [Example 141, 3,3-dimethyl-N-[3-(2-methylphenyl)pyrazolo[1,5-a]pyrimidin-2-yl]butanamide]
10%	> 10000 nM	Cc1ccc(/C=C/c2c(NC(=O)CC(C)(C)C)nn3cccnc23)cn1 [Example 115, 3,3-dimethyl-N-{3-[(E)-2-(6-methylpyridin-3-yl)vinyl]pyrazolo[1,5-a]pyrimidin-2-yl}butanamide]
101%	1000 to 10000 nM	Cc1ccc(-c2c(NC(=O)CC(C)(C)C)nn3c(C)ccnc23)cc1F [Example 12, N-[3-(3-fluoro-4-methylphenyl)-7-methylpyrazolo[1,5-a]pyrimidin-2-yl]-3,3-dimethylbutanamide]
113%	> 10000 nM	O=C(CC1CCCC1)Nc1nn2cccnc2c1-c1cccc(C(F)(F)F)c1 [Example 64, 2-cyclopentyl-N-{3-[3-(trifluoromethyl)phenyl]pyrazolo[1,5-a]pyrimidin-2-yl}acetamide]

Emax	EC50	SMILES
136%	500 to 1000 nM	Cc1ccnc2c(-c3ccc(OC(F)(F)F)cc3)c(NC(=O)CC(C)(C)c3ccccc3)nn12 [Example 159, 3-methyl-N-{7-methyl-3-[4-(trifluoromethoxy)phenyl]pyrazolo[1,5-a]pyrimidin-2-yl}-3-phenylbutanamide]
8%	> 10000 nM	CC(C)(C)c1c(NC(=O)/C=C/c2ccccc2)nn2cccnc12 [Example 136, (2E)-N-(3-tert-butylpyrazolo[1,5-a]pyrimidin-2-yl)-3-phenylacrylamide]
133%	1000 to 10000 nM	CC(C)(C)c1c(NC(=O)C=C2CCCCC2)nn2cccnc12 [Example 163, N-(3-tert-butylpyrazolo[1,5-a]pyrimidin-2-yl)-2-cyclohexylideneacetamide]
194%	< 100 nM	CC(C)(C)Cc1c(NC(=O)CCC2CCCCC2)nn2cccnc12 [Example 11, 3-cyclohexyl-N-[3-(2,2-dimethylpropyl)pyrazolo[1,5-a]pyrimidin-2-yl]propanamide]
141%	< 100 nM	Cc1ccnc2c(Cc3ccc(F)cc3)c(NC(=O)CCC3CCCC3)nn12 [Example 71, 3-cyclopentyl-N-[3-(4-fluorobenzyl)-7-methylpyrazolo[1,5-a]pyrimidin-2-yl]propanamide]
10%	> 10000 nM	O=C(Cc1ccccc1O)Nc1nn2cccnc2c1-c1ccc(Cl)cc1 [Example 104, N-[3-(4-chlorophenyl)pyrazolo[1,5-a]pyrimidin-2-yl]-2-(2-hydroxyphenyl)acetamide]
158%	< 100 nM	Cc1cnc2c(C(C)(C)C)c(NC(=O)CCC3CCCCC3)nn2c1 [Example 178, N-(3-tert-butyl-6-methylpyrazolo[1,5-a]pyrimidin-2-yl)-3-cyclohexylpropanamide]
137%	100 to 500 nM	O=C(CCC1CCCCC1)Nc1nn2cccnc2c1-c1ccc(F)cc1 [Example 24, 3-cyclohexyl-N-[3-(4-fluorophenyl)pyrazolo[1,5-a]pyrimidin-2-yl]propanamide]
206%	100 to 500 nM	Cc1cc(C)n2nc(NC(=O)Cc3ccc(F)cc3)c(-c3ccccc3)c2n1 [Example 96, N-(5,7-dimethyl-3-phenylpyrazolo[1,5-a]pyrimidin-2-yl)-2-(4-fluorophenyl)acetamide]
125%	100 to 500 nM	Cc1cnc2c(-c3cccc(C(F)(F)F)c3)c(NC(=O)CC(C)(C)C)nn2c1 [Example 63, 3,3-dimethyl-N-{6-methyl-3-[3-(trifluoromethyl)phenyl]pyrazolo[1,5-a]pyrimidin-2-yl}butanamide]
151%	< 100 nM	Cc1cnc2c(C(C)(C)C)c(NC(=O)CCC3CCCC3)nn2c1 [Example 179, N-(3-tert-butyl-6-methylpyrazolo[1,5-a]pyrimidin-2-yl)-3-cyclopentylpropanamide]
94%	100 to 500 nM	CC(C)(C)c1c(NC(=O)CC23CC4CC(CC(C4)C2)C3)nn2cccnc12 [Example 107, 2-(adamantan-1-yl)-N-(3-tert-butylpyrazolo[1,5-a]pyrimidin-2-yl)acetamide]
98%	1000 to 10000 nM	C/C=C/c1c(NC(=O)CC(C)(C)C)nn2cccnc12 [Example 167, 3,3-dimethyl-N-{3-[(1E)-prop-1-en-1-yl]pyrazolo[1,5-a]pyrimidin-2-yl}butanamide]
154%	500 to 1000 nM	COc1cccc(CC(=O)Nc2nn3cc(C)cnc3c2-c2ccc(F)cc2)c1 [Example 26, N-[3-(4-fluorophenyl)-6-methylpyrazolo[1,5-a]pyrimidin-2-yl]-2-(3-methoxyphenyl)acetamide]
8%	> 10000 nM	O=C(NCC1CCOCC1)Nc1nn2cccnc2c1-c1ccc(Cl)cc1 [Example 103, 1-[3-(4-chlorophenyl)pyrazolo[1,5-a]pyrimidin-2-yl]-3-(tetrahydro-2H-pyran-4-ylmethyl)urea]
136%	1000 to 10000 nM	COc1cccc(CC(=O)Nc2nn3c(C)ccnc3c2-c2ccc(Cl)cc2)c1 [Example 41, N-[3-(4-chlorophenyl)-7-methylpyrazolo[1,5-a]pyrimidin-2-yl]-2-(3-methoxyphenyl)acetamide]
8%	> 10000 nM	COC(=O)c1c(NC(=O)CCC2CCCC2)nn2cccnc12 [Example 125, methyl 2-[(3-cyclopentylpropanoyl)amino]pyrazolo[1,5-a]pyrimidine-3-carboxylate]
126%	500 to 1000 nM	Cc1cnc2c(-c3ccc(F)c(C)c3)c(NC(=O)CCC(C)(C)C)nn2c1 [Example 164, N-[3-(4-fluoro-3-methylphenyl)-6-methylpyrazolo[1,5-a]pyrimidin-2-yl]-4,4-dimethylpentanamide]

Source: patent publication US8609669B2, “Potassium channel modulators” (AbbVie Inc., priority 2010, dated 2013)
